# Measurements from patent US20110251379A1, “COMPOUNDS USEFUL FOR TREATING NEURODEGENERATIVE DISORDERS” (Satori Pharmaceuticals, Inc., priority 2010, published 2011).
# Tested on: amyloid-beta (1-42) peptide
# Test: ELISA assay of amyloid-beta (1-42) in conditioned media of 2B7 cells
# Type: cell-based
# Conditions: for IC50: Aβ-42, 2B7 cells, 5 hours, read-out: IC50 range; for % Inhibition (range): Aβ-42, 20 umol/L
# Summary of the method: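 2B7 cells were treated with compounds for 5 hours at 37° C in media with 1% DMSO. Conditioned media, diluted 1:2 in blocking buffer, went into a sandwich ELISA with 6E10 capture and an HRP-labelled detection antibody, read by TMB at 450 nm. Values came from an Aβ peptide standard curve.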
Structure (SMILES),IC50 [µM],% Inhibition (range)
CC1CC(C(=O)NCc2ccccc2)OC2C1C1(C)CCC34CC35CCC(O)C(C)(C)C5CCC4C1(C)C2O (stereo not shown),> 10,–
CC1CC(CN)OC2C1C1(C)CCC34CC35CCC(O)C(C)(C)C5CCC4C1(C)C2O (stereo not shown),> 10,–
CC(=O)NCC1CC(C)C2C(O1)C(O)C1(C)C3CCC4C(C)(C)C(O)CCC45CC35CCC21C (stereo not shown),> 10,–
CC1CC(CNC(C)(C)C)OC2C1C1(C)CCC34CC35CCC(OS(C)(=O)=O)C(C)(C)C5CCC4C1(C)C2O (stereo not shown),> 10,–
CCC(=O)N(CC1CC(C)C2C(O1)C(O)C1(C)C3CCC4C(C)(C)C(O)CCC45CC35CCC21C)C(C)(C)C (stereo not shown),> 10,–
CC1CC(C(=O)N2CCC2)OC2C1C1(C)CCC34CC35CCC(O)C(C)(C)C5CCC4C1(C)C2O (stereo not shown),> 10,–
CC1CC(C(=O)N2CCOCC2)OC2C1C1(C)CCC34CC35CCC(O)C(C)(C)C5CCC4C1(C)C2O (stereo not shown),> 10,–
CC1CC(CNS(C)(=O)=O)OC2C1C1(C)CCC34CC35CCC(O)C(C)(C)C5CCC4C1(C)C2O (stereo not shown),> 10,–
CC(=O)N(CC1CC(C)C2C(O1)C(O)C1(C)C3CCC4C(C)(C)C(O)CCC45CC35CCC21C)C1COC1 (stereo not shown),> 10,–
CC1CC(CN(C2COC2)S(C)(=O)=O)OC2C1C1(C)CCC34CC35CCC(O)C(C)(C)C5CCC4C1(C)C2O (stereo not shown),> 10,–
CC(=O)N(CC1CC1)CC1CC(C)C2C(O1)C(O)C1(C)C3CCC4C(C)(C)C(O)CCC45CC35CCC21C (stereo not shown),> 10,–
CC1CC(CN(CC2CC2)S(C)(=O)=O)OC2C1C1(C)CCC34CC35CCC(O)C(C)(C)C5CCC4C1(C)C2O (stereo not shown),> 10,–
CC(=O)N(CC1CC(C)C2C(O1)C(O)C1(C)C3CCC4C(C)(C)C(O)CCC45CC35CCC21C)CC(C)(C)O (stereo not shown),> 10,–
"CC1CC(C(O)C(C)(C)O)OC2C1C1(C)CCC34CC35CCC(OC3CN(C6CCOC6)CCO3)C(C)(C)C5CCC4C1(C)C2O (single isomer, unassigned) [drawing 1105]",–,F (% inhibition of <25%)
"CC1CC(C(O)C(C)(C)O)OC2C1C1(C)CCC34CC35CCC(OC3CN(C6CCOC6)CCO3)C(C)(C)C5CCC4C1(C)C2O (single isomer, unassigned) [drawing 1106]",–,E (% inhibition of 25-75%)
CC1CC(CO)OC2C1C1(C)CCC34CC35CCC(OC3OCC(O)C(O)C3O)C(C)(C)C5CCC4C1(C)C2O (stereo not shown) [drawing 782],> 10,E (% inhibition of 25-75%)
CC1CC(CO)OC2C1C1(C)CCC34CC35CCC(OC3OCC(O)C(O)C3O)C(C)(C)C5CCC4C1(C)C2O (stereo not shown) [drawing 783],1 to 10,–
CC(=O)OC(C1CC(C)C2C(O1)C(O)C1(C)C3CCC4C(C)(C)C(OC5CN(S(C)(=O)=O)CCO5)CCC45CC35CCC21C)C(C)(C)O (stereo not shown) [drawing 785],≤ 1,–
CC(=O)OC(C1CC(C)C2C(O1)C(O)C1(C)C3CCC4C(C)(C)C(OC(=O)C5CNC5)CCC45CC35CCC21C)C(C)(C)O (stereo not shown) [drawing 791],≤ 1,–
CC(=O)OCC1CC(C)C2C(O1)C(O)C1(C)C3CCC4C(C)(C)C(OC5OCC(O)C(O)C5O)CCC45CC35CCC21C (stereo not shown) [drawing 792],1 to 10,–
CC(=O)N(Cc1ccccc1)CC1CC(C)C2C(O1)C(O)C1(C)C3CCC4C(C)(C)C(O)CCC45CC35CCC21C (stereo not shown) [drawing 801],1 to 10,–
CC1CC(C(=O)O)OC2C1C1(C)CCC34CC35CCC(O)C(C)(C)C5CCC4C1(C)C2O (stereo not shown) [drawing 803],> 10,–
CCC(=O)OC(C1CC(C)C2C(O1)C(O)C1(C)C3CCC4C(C)(C)C(OC5CN(C6COC6)CCO5)CCC45CC35CCC21C)C(C)(C)O (stereo not shown) [drawing 805],≤ 1,–
CC(=O)OCC1CC(C)C2C(O1)C(O)C1(C)C3CCC4C(C)(C)C(OC(=O)c5cccnc5)CCC45CC35CCC21C (stereo not shown) [drawing 832],1 to 10,–
CC(=O)N(Cc1cc(F)cc(F)c1)CC1CC(C)C2C(O1)C(O)C1(C)C3CCC4C(C)(C)C(O)CCC45CC35CCC21C (stereo not shown) [drawing 839],≤ 1,–
CC(=O)N(Cc1ccccn1)CC1CC(C)C2C(O1)C(O)C1(C)C3CCC4C(C)(C)C(O)CCC45CC35CCC21C (stereo not shown) [drawing 841],1 to 10,–
CC(=O)N(CC1CC(C)C2C(O1)C(O)C1(C)C3CCC4C(C)(C)C(O)CCC45CC35CCC21C)C(C)c1ccccc1 (stereo not shown) [drawing 844],< 10,–
